Experimental findings from US11964988B2, “Fused heterocyclic compounds as RET kinase inhibitors” (ARRAY BIOPHARMA INC., priority 2018, dated 2024) are described below.

The target in one experiment is RET kinase V804M (Homo sapiens, UniProt P07949, V804M). Put plainly: RET Enzyme Assay (CisBio HTRF KinEASE-TK), V804M. Format: biochemical. As to conditions: read-out: RET V804M Enz FRET IC50. On the technique in general: In TR-FRET formats the signal depends on donor and acceptor labels being close together.
Sequence of RET kinase V804M (P07949 29-1114 V804M): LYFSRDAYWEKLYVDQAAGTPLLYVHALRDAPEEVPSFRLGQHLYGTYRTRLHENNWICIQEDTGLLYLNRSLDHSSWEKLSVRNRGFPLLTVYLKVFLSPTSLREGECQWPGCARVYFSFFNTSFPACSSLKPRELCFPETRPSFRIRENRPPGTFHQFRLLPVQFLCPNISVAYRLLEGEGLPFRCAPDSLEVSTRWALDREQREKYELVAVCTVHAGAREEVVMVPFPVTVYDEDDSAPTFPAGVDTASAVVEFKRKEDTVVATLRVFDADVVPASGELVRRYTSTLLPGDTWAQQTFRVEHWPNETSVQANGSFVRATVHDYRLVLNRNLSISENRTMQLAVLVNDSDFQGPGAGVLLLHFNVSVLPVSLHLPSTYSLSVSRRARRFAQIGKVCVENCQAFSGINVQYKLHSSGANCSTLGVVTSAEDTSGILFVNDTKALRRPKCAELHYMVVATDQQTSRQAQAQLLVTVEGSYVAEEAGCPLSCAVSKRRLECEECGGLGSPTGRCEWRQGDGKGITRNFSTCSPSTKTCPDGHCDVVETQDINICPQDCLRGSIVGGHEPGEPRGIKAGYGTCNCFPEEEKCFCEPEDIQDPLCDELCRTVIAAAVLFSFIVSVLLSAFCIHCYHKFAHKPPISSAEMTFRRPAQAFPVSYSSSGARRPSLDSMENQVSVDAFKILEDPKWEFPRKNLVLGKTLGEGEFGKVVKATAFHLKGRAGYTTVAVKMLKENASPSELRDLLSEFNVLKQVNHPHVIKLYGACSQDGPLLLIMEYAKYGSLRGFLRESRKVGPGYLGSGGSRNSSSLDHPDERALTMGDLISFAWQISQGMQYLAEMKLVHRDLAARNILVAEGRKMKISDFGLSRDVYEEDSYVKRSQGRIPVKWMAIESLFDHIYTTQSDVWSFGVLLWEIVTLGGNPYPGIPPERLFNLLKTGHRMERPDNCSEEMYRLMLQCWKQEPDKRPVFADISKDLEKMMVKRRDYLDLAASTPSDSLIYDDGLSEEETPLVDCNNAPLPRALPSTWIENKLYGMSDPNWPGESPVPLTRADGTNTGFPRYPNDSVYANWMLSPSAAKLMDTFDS
The target of experiment [1] is T1, HEK-293 cells expressing a Kif5b-RET fusion protein (Homo sapiens, UniProt P07949).
T1 construct: KIF5B (N-terminal portion incl. coiled-coil); expressed in transfected cells; host or cells: HEK-293; the other entry of the earlier key: KIF5B (P33176, Kinesin-1 heavy chain)
T1 sequence (P07949 713-1063 limits assumed): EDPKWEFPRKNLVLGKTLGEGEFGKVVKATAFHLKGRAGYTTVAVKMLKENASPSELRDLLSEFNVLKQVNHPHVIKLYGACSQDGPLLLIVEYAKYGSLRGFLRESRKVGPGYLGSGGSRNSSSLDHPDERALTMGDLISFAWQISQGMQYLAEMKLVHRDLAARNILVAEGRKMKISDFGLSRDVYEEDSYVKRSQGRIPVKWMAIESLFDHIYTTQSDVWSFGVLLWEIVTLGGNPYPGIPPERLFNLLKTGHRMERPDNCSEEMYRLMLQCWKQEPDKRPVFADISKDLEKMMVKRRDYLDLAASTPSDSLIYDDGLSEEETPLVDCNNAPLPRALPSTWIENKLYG
The experiment in a line: RET Cell Assay (phospho-RET Tyr1062). Format: cell-based. As to conditions: HEK-293 Kif5b-RET, 1 hour incubation, phospho-RET normalized to GAPDH; read-out: KIF5B-RET pTYR1062 Cell IC50. The method, boiled down: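 Phospho-RET (Tyr1062) to GAPDH ratio read by in-cell fluorescent immunodetection after 1 hour compound exposure in DMEM, 0.5% DMSO. Cells: HEK-293 carrying Kif5b-RET fusion. POC data fit to a 4-parameter logistic curve, IC50 taken at 50 POC.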

The target of experiment [2] is T2, HEK-293 cells expressing a G810R mutant RET Kif5b-RET fusion protein (Homo sapiens, UniProt P07949, G810R).
T2 construct: KIF5B (N-terminal portion incl. coiled-coil); expressed in transfected cells; host or cells: HEK-293; the other entry of the earlier key: KIF5B (P33176, Kinesin-1 heavy chain)
T2 sequence (P07949 713-1063 G810R limits assumed): T1 sequence (P07949 713-1063 limits assumed) with G98R
The experiment in a line: RET G810R Mutant Cell Assay (phospho-RET Tyr1062). Format: cell-based. Particulars: HEK-293 Kif5b-RET G810R, 1 hour incubation, phospho-RET normalized to GAPDH. The procedure, abridged:
(§1)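 Signals came from in-cell immunostaining of fixed, methanol-permeabilized HEK-293 fusion-expressing cells exposed 1 h to compound in DMEM with 0.5% DMSO.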

The target of experiment [3] is T3, HEK-293 cells expressing a G810S mutant RET Kif5b-RET fusion protein (Homo sapiens, UniProt P07949, G810S).
T3 construct: KIF5B (N-terminal portion incl. coiled-coil); expressed in transfected cells; host or cells: HEK-293
T3 sequence (P07949 713-1063 G810S limits assumed): T1 sequence (P07949 713-1063 limits assumed) with G98S
The experiment in a line: RET G810S Mutant Cell Assay (phospho-RET Tyr1062). The experiment is classed as cell-based. Particulars: HEK-293 Kif5b-RET G810S, 1 hour incubation, phospho-RET normalized to GAPDH. The method, boiled down:
as §1

For another experiment, the target named is RET kinase Wild Type (Homo sapiens, UniProt P07949). Put plainly: biochemical.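 Also: HTRF kinase activity assay on RET enzyme, 1 h reaction at 22 °C, dual-wavelength readout as percent of control, DMSO-only wells as 100%, pre-quenched reactions as 0%.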
Sequence of RET kinase Wild Type (P07949 29-1114): as the sequence (P07949 29-1114 V804M) above, with M776V counted along it
A further experiment addresses G810R mutant RET kinase (Homo sapiens, UniProt P07949, G810R). Put plainly: biochemical.
Another experiment deals with G810S mutant RET kinase (Homo sapiens, UniProt P07949, G810S). Put plainly: biochemical.
Sequence of G810S mutant RET kinase (P07949 29-1114 G810S): as the sequence (P07949 29-1114 V804M) above, with M776V, G782S counted along it

Each structure is given as a SMILES string. Positions count from the first letter of the chain named.

Sequence of G810R mutant RET kinase (P07949 29-1114 G810R): as the sequence (P07949 29-1114 V804M) above, with M776V, G782R counted along it
Description for G810R mutant RET kinase: The potency of compounds inhibiting several different RET kinase forms (Wild Type, V804M, G810R, & G810S) were determined using CisBio's HTRF® KinEASE™-TK assay technology. […] After a 1 hour incubation at 22° C., the extent of reaction was determined using a PerkinElmer EnVision multimode plate reader via HTRF dual wavelength detection, and the percent of control (POC) was calculated using a ratiometric emission factor. One hundred POC was determined using DMSO only samples (no compound present), and 0 POC was determined using pre-quenched control reactions.
The potency of a compound inhibiting G810R or G810S mutant RET kinase was determined using CisBio's HTRF® KinEASE™-TK assay technology. The assays contained G810R or G810S mutant RET produced at Array Biopharma, Inc. (1 nM enzyme). […] After a 1-h incubation at 22° C., the extent of reaction was determined using a PerkinElmer EnVision multimode plate reader via HTRF dual wavelength detection, and the percent of control (POC) was calculated using a ratiometric emission factor. One hundred POC was determined using no test compounds, and 0 POC was determined using pre-quenched control reactions.

With `Nc1ncnc2c1c1c(n2-c2ccccc2)CCC(O)c2c-1noc2C1CC1` (stereo not shown) [Example 118, 11-Amino-3-cyclopropyl-7-phenyl-4,5,6,7-tetrahydroisoxazolo[4″,3″:6′,7′]cyclohepta[1′,2′:4,5]pyrrolo[2,3-d]pyrimidin-4-ol 2,2,2-trifluoroacetate], the IC50 (usually the concentration that inhibits the measured activity by half) on RET kinase V804M was found to be 0.099 µM; in experiment [1] it was 0.125 µM; in experiment [2] it was 0.206 µM; in experiment [3], 0.108 µM; against RET kinase Wild Type, 0.131 µM; against G810R mutant RET kinase, 0.08 µM. The compound further yielded a half-maximal inhibitory concentration (IC50) against G810S mutant RET kinase of 0.075 µM.

Consider `C[C@@H](n1c2c(c3c(N)ncnc31)-c1noc(C3CC3)c1[C@H](O)CC2)C(F)(F)F` (single isomer, unassigned) [Example 147, 2,2,2-trifluoroacetate], for which the IC50 is 0.032 µM at RET kinase V804M; 0.021 µM in experiment [1]; 0.056 µM in experiment [2]; 0.09 µM in experiment [3]; 0.014 µM at RET kinase Wild Type; 0.074 µM on G810R mutant RET kinase. In addition, half-maximal inhibition against G810S mutant RET kinase (IC50) required 0.094 µM.

As to `Nc1ncnc2c1c1c(n2C(CF)CF)CC[C@H](O)c2c-1noc2C1CC1` (single isomer, unassigned) [Example 126], the IC50 at RET kinase V804M amounted to 0.03 µM; in experiment [1], 0.005 µM; in experiment [2], 0.029 µM; in experiment [3] it was 0.026 µM; against RET kinase Wild Type, 0.006 µM; at G810R mutant RET kinase, 0.015 µM. This compound displayed an IC50 against G810S mutant RET kinase of 0.009 µM.

As to `CC(C)n1c2c(c3c(N)ncnc31)-c1noc(C3CC3)c1C(O)CC2` (racemic) [Example 29, 11-amino-3-cyclopropyl-7-isopropyl-4,5,6,7-tetrahydroisoxazolo[4″,3″:6′,7′]cyclohepta[1′,2′:4,5]pyrrolo[2,3-d]pyrimidin-4-ol], the IC50 at RET kinase V804M worked out at 0.026 µM; in experiment [1], 0.012 µM; in experiment [2] it was 0.071 µM; in experiment [3], 0.037 µM; against RET kinase Wild Type, 0.008 µM; against G810R mutant RET kinase, 0.027 µM. The same compound displayed an IC50 on G810S mutant RET kinase of 0.025 µM.

On to `CC(C)n1c2c(c3c(N)ncnc31)-c1noc(C3CC3)c1[C@@H](O)[C@H](C)C2` (single isomer, unassigned) [Example 64], for which the concentration for half-maximal inhibition (IC50) on RET kinase V804M came to 0.182 µM; in experiment [1], 0.047 µM; in experiment [2], 0.119 µM; in experiment [3], 0.09 µM; at RET kinase Wild Type, 0.039 µM; on G810R mutant RET kinase, 0.169 µM. At G810S mutant RET kinase, this compound returned an IC50 of 0.076 µM.

For `Cc1ccc2c(c1)cc1n2C(=O)NCc2c-1c1c(N)ncnc1n2C(C)C` [Example 81, 1-amino-5-isopropyl-12-methyl-6,7-dihydropyrimido[5″,4″:4′,5′]pyrrolo[2′,3′: 5,6][1,3]diazepino[1,7-a]indol-8(5H)-one], the concentration for half-maximal inhibition (IC50) at RET kinase V804M was determined as 5.49 µM; in experiment [1], 0.011 µM; in experiment [2], 0.076 µM; in experiment [3], 0.039 µM; against RET kinase Wild Type, 0.019 µM; at G810R mutant RET kinase, 0.094 µM. This compound had a half-maximal inhibitory concentration (IC50) against G810S mutant RET kinase of 0.052 µM.

Take `CC(=O)N1Cc2c(noc2C2CC2)-c2c(n(C(C)C)c3ncnc(N)c23)C1` [Example 36, 1-(11-amino-3-cyclopropyl-7-isopropyl-6,7-dihydroisoxazolo[4,3-c]pyrimido[5′,4′:4,5]pyrrolo[3,2-e]azepin-5(4H)-yl)ethan-1-one 2,2,2-trifluoroacetate]: the IC50 on RET kinase V804M is 0.235 µM; in experiment [1], 0.053 µM; in experiment [2], 0.144 µM; in experiment [3], 0.255 µM; against RET kinase Wild Type, 0.058 µM; against G810R mutant RET kinase, 0.13 µM. The IC50 on G810S mutant RET kinase amounted to 0.217 µM.

For the compound `CC(C)n1c2c(c3c(N)ncnc31)-c1noc(C3CC3)c1[C@@H](O)[C@@H](C)C2` (relative stereo) [Example 63, (Cis)-11-amino-3-cyclopropyl-7-isopropyl-5-methyl-4,5,6,7-tetrahydroisoxazolo[4″,3″:6′,7′]cyclohepta[1′,2′:4,5]pyrrolo[2,3-d]pyrimidin-4-ol], the IC50 at RET kinase V804M is 0.211 µM; in experiment [1] it was 0.072 µM; in experiment [2], 0.439 µM; in experiment [3], 0.352 µM; at RET kinase Wild Type, 0.061 µM; at G810R mutant RET kinase, 0.118 µM. The compound further registered an IC50 against G810S mutant RET kinase of 0.108 µM.

As to `Nc1ncnc2c1c1c(n2C(CF)CF)CC[C@@H](O)c2c-1noc2C1CC1` (single isomer, unassigned) [Example 127], the IC50 was determined as 0.021 µM at RET kinase V804M; 0.009 µM in experiment [1]; 0.057 µM in experiment [2]; 0.052 µM in experiment [3]; 0.006 µM against RET kinase Wild Type; 0.028 µM on G810R mutant RET kinase. The same compound registered a half-maximal inhibitory concentration (IC50) against G810S mutant RET kinase of 0.023 µM.

As for `CC(C)n1c2c(c3c(N)ncnc31)-c1noc(C3CC3)c1C(=O)NC2` [Example 19, 11-amino-3-cyclopropyl-7-isopropyl-6,7-dihydroisoxazolo[4,3-c]pyrimido[5′,4′:4,5]pyrrolo[3,2-e]azepin-4(5H)-one 2,2,2-trifluoroacetate], the concentration for half-maximal inhibition (IC50) on RET kinase V804M came to 0.202 µM; in experiment [1], 0.053 µM; in experiment [2], 0.262 µM; in experiment [3] it was 0.184 µM; on RET kinase Wild Type, 0.045 µM; against G810R mutant RET kinase it was 0.103 µM. Also, the IC50 against G810S mutant RET kinase came to 0.215 µM.

For the compound `CO[C@@H]1CCc2c(c3c(N)ncnc3n2C2(C)CC2)-c2noc(C3CC3)c21` [Example 151, (R)-3-Cyclopropyl-4-methoxy-7-(1-methylcyclopropyl)-4,5,6,7-tetrahydroisoxazolo[4″,3″:6′,7]cyclohepta[1′,2′:4,5]pyrrolo[2,3-d]pyrimidin-11-amine], the concentration for half-maximal inhibition (IC50) at RET kinase V804M was 0.027 µM; in experiment [1], 0.014 µM; in experiment [2] it was 0.113 µM; in experiment [3], 0.057 µM; at RET kinase Wild Type it was 0.009 µM; at G810R mutant RET kinase, 0.086 µM. Moreover, half-maximal inhibition against G810S mutant RET kinase (IC50) was put at 0.055 µM.

In the case of `CC(C)n1c2c(c3c(N)ncnc31)-c1noc(C3CC3)c1[C@@H](O)CC2` (single isomer, unassigned) [Example 54], the IC50 was determined as 0.041 µM at RET kinase V804M; 0.022 µM in experiment [1]; 0.103 µM in experiment [2]; 0.092 µM in experiment [3]; 0.013 µM at RET kinase Wild Type; 0.07 µM against G810R mutant RET kinase. The same compound registered a half-maximal inhibitory concentration (IC50) against G810S mutant RET kinase of 0.054 µM.

Turning to `CC(C)n1c2c(c3c(N)ncnc31)-c1noc(C3CC3)c1C(=O)N(C)C2` [Example 20, 11-amino-3-cyclopropyl-7-isopropyl-5-methyl-6,7-dihydroisoxazolo[4,3-c]pyrimido[5′,4′:4,5]pyrrolo[3,2-e]azepin-4(5H)-one], the IC50 is 0.254 µM at RET kinase V804M; 0.028 µM in experiment [1]; 0.16 µM in experiment [2]; 0.111 µM in experiment [3]; 0.053 µM against RET kinase Wild Type; 0.135 µM against G810R mutant RET kinase. In addition, the IC50 on G810S mutant RET kinase is 0.123 µM.
